According to patent US11279687B2, “Compounds and compositions for the inhibition of NAMPT” (Valo Health, Inc., priority 2010, dated 2022):
Where two headings read alike, the source gives them in different places.

Experiments:
[1] = tested on: A2780 cells; test: In-vitro cell proliferation assay (SRB), A2780 cells; assay type: cell-based; details: A2780 cells, 72 hours, SRB, read-out: A2780 IC50;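 note: viable cell number read as SRB absorbance, background from media-only wells subtracted, IC50 interpolated from percent inhibition at two bracketing compound concentrations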
[2] = biological target: NAMPT (Homo sapiens (Human), UniProt P43490); test: NAMPT biochemical inhibition assay (NMN quantified by mass spectrometry); details: NAMPT biochemical inhibition; read-out: Biochem IC50
Chain of NAMPT (P43490 whole entry): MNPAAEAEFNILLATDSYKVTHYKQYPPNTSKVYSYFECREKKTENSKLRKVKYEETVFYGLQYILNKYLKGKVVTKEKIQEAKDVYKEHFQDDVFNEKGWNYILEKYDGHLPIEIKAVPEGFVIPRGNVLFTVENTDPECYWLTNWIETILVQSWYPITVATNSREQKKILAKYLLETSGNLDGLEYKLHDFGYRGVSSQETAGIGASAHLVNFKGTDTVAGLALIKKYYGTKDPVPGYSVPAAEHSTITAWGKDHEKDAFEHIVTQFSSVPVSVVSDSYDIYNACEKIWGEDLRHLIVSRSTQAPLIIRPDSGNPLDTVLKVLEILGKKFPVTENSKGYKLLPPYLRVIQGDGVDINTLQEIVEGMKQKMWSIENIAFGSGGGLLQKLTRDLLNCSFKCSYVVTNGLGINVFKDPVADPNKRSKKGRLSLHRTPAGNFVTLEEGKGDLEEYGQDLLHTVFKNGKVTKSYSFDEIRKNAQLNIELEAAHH

Row | SMILES | IC50 ([1]; Homo sapiens, A2780, 72 h) | IC50 [2] | IC50 [1]
1 | O=C(NCc1cccnc1)Nc1ccc(S(=O)(=O)Nc2ccc(N3CCOCC3)c(Cl)c2)cc1 [3-(4-{[3-chloro-4-(morpholin-4-yl)phenyl]sulfamoyl}phenyl)-1-(pyridin-3-ylmethyl)urea] | 0.024 µM | 0.001 µM | 
2 | O=C(NCc1cccnc1)Nc1ccc(S(=O)(=O)c2ccc(C(F)(F)F)c(Cl)c2)cc1 [3-(4-{[3-chloro-4-(trifluoromethyl)benzene]sulfonyl}phenyl)-1-(pyridin-3-ylmethyl)urea] | 0.1 to 1 µM | 0.004 µM | 
3 | O=C(NCc1cccnc1)Nc1ccc(S(=O)(=O)c2cc(Cl)cc(C(F)(F)F)c2)cc1 [3-(4-{[3-chloro-5-(trifluoromethyl)benzene]sulfonyl}phenyl)-1-(pyridin-3-ylmethyl)urea] | 0.0255 µM | 0.0013 µM | 
4 | O=C(NCc1cccnc1)Nc1ccc(S(=O)(=O)c2ccc(OC(F)(F)F)c(F)c2)cc1 [3-(4-{[3-fluoro-4-(trifluoromethoxy)benzene]sulfonyl}phenyl)-1-(pyridin-3-ylmethyl)urea] | 0.1 to 1 µM | 0.0055 µM | 
5 | O=C(NCc1cccnc1)Nc1ccc(S(=O)(=O)c2cc(F)cc(OCC(F)(F)F)c2)cc1 [3-(4-{[3-fluoro-5-(2,2,2-trifluoroethoxy)benzene]sulfonyl]phenyl)-1-(pyridin-3-ylmethyl)urea] |  | 0.0011 µM | 0.0297 µM
6 | O=C(NCc1cccnc1)Nc1ccc(S(=O)(=O)c2cc(F)cc(C(F)(F)F)c2)cc1 [3-(4-{[3-fluoro-5-(trifluoromethyl)benzene]sulfonyl[phenyl)-1-(pyridin-3-ylmethyl)urea] |  | 0.0007 µM | 0.0576 µM
7 | Cc1cc(NS(=O)(=O)c2ccc(NC(=O)NCc3cccnc3)cc2)ccc1C(C)C [3-(4-{[3-methyl-4-(propan-2-yl)phenyl]sulfamoyl}phenyl)-1-(pyridin-3-ylmethyl)urea] | 0.108 µM | 0.002 µM | 
8 | CC(C)Oc1ccc(S(=O)(=O)c2ccc(NC(=O)NCc3cccnc3)cc2)cc1 [3-(4-{[4-(propan-2-yloxy)benzene]sulfonyl[phenyl)-1-(pyridin-3-ylmethyl)urea] | 0.0291 µM | 0.0017 µM | 
9 | O=C(NCc1cccnc1)Nc1ccc(S(=O)(=O)Nc2ccc(Cl)cc2OC(F)(F)F)cc1 [3-(4-{[4-chloro-2-(trifluoromethoxy)phenyl]sulfamoyl[phenyl)-1-(pyridin-3-ylmethyl)urea] |  | 0.006 µM | 0.113 µM
10 | O=C(NCc1cccnc1)Nc1ccc(S(=O)(=O)c2ccc(Cl)c(C(F)(F)F)c2)cc1 [3-(4-{[4-chloro-3-(trifluoromethyl)benzene]sulfonyl}phenyl)-1-(pyridin-3-ylmethyl)urea] | 0.167 µM | 0.005 µM | 
11 | O=C(NCc1cccnc1)Nc1ccc(S(=O)(=O)c2ccc(F)c(OCC(F)(F)F)c2)cc1 [3-(4-{[4-fluoro-3-(2,2,2-trifluoroethoxy)benzene]sulfonyl[phenyl)-1-(pyridin-3-ylmethyl)urea] |  | 0.0021 µM | 0.0234 µM
12 | O=C(NCc1cccnc1)Nc1ccc(S(=O)(=O)c2ccc(F)c(C(F)(F)F)c2)cc1 [3-(4-{[4-fluoro-3-(trifluoromethyl)benzene]sulfonyl[phenyl)-1-(pyridin-3-ylmethyl)urea] |  | 0.0015 µM | 0.0862 µM
13 | Cc1ccc(NS(=O)(=O)c2ccc(NC(=O)NCc3cccnc3)cc2)cc1C(F)(F)F [3-(4-{[4-methyl-3-(trifluoromethyl)phenyl]sulfamoyl[phenyl)-1-(pyridin-3-ylmethyl)urea] |  | 0.002 µM | 0.179 µM
14 | O=C(NCc1cccnc1)Nc1ccc(S(=O)(=O)Nc2ccccc2-n2cccc2)cc1 [3-(pyridin-3-ylmethyl)-1-(4-{[2-(1H-pyrrol-1-yl)phenyl]sulfamoyl}phenyl)urea] | 0.076 µM | 0.003 µM | 
15 | O=C(NCc1cccnc1)Nc1ccc(S(=O)(=O)Nc2ccccc2N2CCCC2)cc1 [3-(pyridin-3-ylmethyl)-1-(4-{[2-(pyrrolidin-1-yl)phenyl]sulfamoyl}phenyl)urea] | 0.011 µM | 0.013 µM | 
16 | O=C(NCc1cccnc1)Nc1ccc(S(=O)(=O)N2CCc3ncccc3C2)cc1 [3-(pyridin-3-ylmethyl)-1-[4-(5,6,7,8-tetrahydro-1,6-naphthyridine-6-sulfonyl)phenyl]urea] | 0.111 µM | 0.016 µM | 
17 | O=C(NCc1cccnc1)Nc1ccc(S(=O)(=O)c2cncnc2)cc1 [3-(pyridin-3-ylmethyl)-1-[4-(pyrimidine-5-sulfonyl)phenyl]urea] | 0.871 µM | 0.02 µM | 

Continued, in another order:

Row | IC50 ([1]; Homo sapiens, A2780, 72 h) | IC50 [2] | SMILES | IC50 [1]
18 | 0.1 to 1 µM | 0.0076 µM | CCS(=O)(=O)c1cccc(S(=O)(=O)c2ccc(NC(=O)NCc3cccnc3)cc2)c1 [3-(4-{[3-(ethanesulfonyl)benzene]sulfonyl]phenyl)-1-(pyridin-3-ylmethyl)urea] | 
19 | 0.1 to 1 µM | 0.0072 µM | CCNS(=O)(=O)c1cccc(S(=O)(=O)c2ccc(NC(=O)NCc3cccnc3)cc2)c1 [3-(4-{[3-(ethylsulfamoyl)benzene]sulfonyl}phenyl)-1-(pyridin-3-ylmethyl)urea] | 
20 | 0.0933 µM | 0.0033 µM | COCc1cccc(S(=O)(=O)c2ccc(NC(=O)NCc3cccnc3)cc2)c1 [3-(4-{[3-(methoxymethyl)benzene]sulfonyl}phenyl)-1-(pyridin-3-ylmethyl)urea] | 
21 | 0.038 µM | 0.002 µM | CC(C)c1cccc(S(=O)(=O)c2ccc(NC(=O)NCc3cccnc3)cc2)c1 [3-(4-{[3-(propan-2-yl)benzene]sulfonyl}phenyl)-1-(pyridin-3-ylmethyl)urea] | 
22 | 0.079 µM | 0.004 µM | CC(C)Oc1cccc(S(=O)(=O)c2ccc(NC(=O)NCc3cccnc3)cc2)c1 [3-(4-{[3-(propan-2-yloxy)benzene]sulfonyl}phenyl)-1-(pyridin-3-ylmethyl)urea] | 
23 | 0.086 µM | 0.0016 µM | CCCS(=O)(=O)Nc1cccc(S(=O)(=O)c2ccc(NC(=O)NCc3cccnc3)cc2)c1 [3-(4-{[3-(propane-1-sulfonamido)benzene]sulfonyl}phenyl)-1-(pyridin-3-ylmethyl)urea] | 
24 | 0.1 to 1 µM | 0.0022 µM | O=C(NCc1cccnc1)Nc1ccc(S(=O)(=O)c2ccc(OCC(F)(F)F)c(F)c2)cc1 [3-(4-{[3-fluoro-4-(2,2,2-trifluoroethoxy)benzene]sulfonyl}phenyl)-1-(pyridin-3-ylmethyl)urea] | 
25 | 0.1 to 1 µM | 0.0041 µM | O=C(NCc1cccnc1)Nc1ccc(S(=O)(=O)c2ccc(C(F)(F)F)c(F)c2)cc1 [3-(4-{[3-fluoro-4-(trifluoromethyl)benzene]sulfonyl}phenyl)-1-(pyridin-3-ylmethyl)urea] | 
26 | 0.0564 µM | 0.004 µM | CC(C)COc1cc(F)cc(S(=O)(=O)c2ccc(NC(=O)NCc3cccnc3)cc2)c1 [3-(4-{[3-fluoro-5-(2-methylpropoxy)benzene]sulfonyl}phenyl)-1-(pyridin-3-ylmethyl)urea] | 
27 | 0.1 to 1 µM | 0.001 µM | CCOCc1ccc(S(=O)(=O)c2ccc(NC(=O)NCc3cccnc3)cc2)cc1 [3-(4-{[4-(ethoxymethyl)benzene]sulfonyl[phenyl)-1-(pyridin-3-ylmethyl)urea] | 
28 | 0.1 to 1 µM | 0.003 µM | CC(C)c1ccc(S(=O)(=O)c2ccc(NC(=O)NCc3cccnc3)cc2)cc1 [3-(4-{[4-(propan-2-yl)benzene]sulfonyl[phenyl)-1-(pyridin-3-ylmethyl)urea] | 
29 | 0.201 µM | 0.003 µM | O=C(NCc1cccnc1)Nc1ccc(S(=O)(=O)NCc2ccccc2Cl)cc1 [3-(4-{[(2-chlorophenyl)methyl]sulfamoyl}phenyl)-1-(pyridin-3-ylmethyl)urea] | 
30 | 0.097 µM | 0.008 µM | COc1ccccc1CNS(=O)(=O)c1ccc(NC(=O)NCc2cccnc2)cc1 [3-(4-{[(2-methoxyphenyl)methyl]sulfamoyl}phenyl)-1-(pyridin-3-ylmethyl)urea] | 
31 | 0.156 µM | 0.002 µM | CN(Cc1cccc(F)c1)S(=O)(=O)c1ccc(NC(=O)NCc2cccnc2)cc1 [3-(4-{[(3-fluorophenyl)methyl](methyl)sulfamoyl}phenyl)-1-(pyridin-3-ylmethyl)urea] | 
32 | 0.484 µM | 0.002 µM | CN(Cc1ccc(Cl)cc1)S(=O)(=O)c1ccc(NC(=O)NCc2cccnc2)cc1 [3-(4-{[(4-chlorophenyl)methyl](methyl)sulfamoyl}phenyl)-1-(pyridin-3-ylmethyl)urea] | 
33 | 0.507 µM | 0.016 µM | COc1ccc(CNS(=O)(=O)c2ccc(NC(=O)NCc3cccnc3)cc2)cc1 [3-(4-{[(4-methoxyphenyl)methyl]sulfamoyl}phenyl)-1-(pyridin-3-ylmethyl)urea] | 
34 | 0.134 µM | 0.005 µM | CCc1ccc(CN(C)S(=O)(=O)c2ccc(NC(=O)NCc3cccnc3)cc2)nc1 [3-(4-{[(5-ethylpyridin-2-yl)methyl](methyl)sulfamoyl}phenyl)-1-(pyridin-3-ylmethyl)urea] | 
35 | 0.008 µM | 0.001 µM | C[C@@H](c1ccccc1)N(C)S(=O)(=O)c1ccc(NC(=O)NCc2cccnc2)cc1 [3-(4-{methyl[(1S)-1-phenylethyl]sulfamoyl}phenyl)-1-(pyridin-3-ylmethyl)urea] | 
36 | 0.595 µM | 0.005 µM | O=C(NCc1cccnc1)Nc1ccc(S(=O)(=O)c2cccnc2)cc1 [3-(pyridin-3-ylmethyl)-1-[4-(pyridine-3-sulfonyl)phenyl]urea] | 
37 | 0.488 µM | 0.011 µM | O=C(NCc1cccnc1)Nc1ccc(S(=O)(=O)c2ccncc2)cc1 [3-(pyridin-3-ylmethyl)-1-[4-(pyridine-4-sulfonyl)phenyl]urea] | 
38 | 0.028 µM | 0.0028 µM | O=C(NCc1cccnc1)Nc1ccc(S(=O)(=O)c2cnc3ccccc3c2)cc1 [3-(pyridin-3-ylmethyl)-1-[4-(quinoline-3-sulfonyl)phenyl]urea] | 
39 | 0.0441 µM | 0.0027 µM | O=C(NCc1cccnc1)Nc1ccc(S(=O)(=O)c2ccc3ncccc3c2)cc1 [3-(pyridin-3-ylmethyl)-1-[4-(quinoline-6-sulfonyl)phenyl]urea] | 
40 | 0.0022 µM | 0.0014 µM | O=C(NCc1cccnc1)Nc1ccc(S(=O)(=O)c2cccc3cccnc23)cc1 [3-(pyridin-3-ylmethyl)-1-[4-(quinoline-8-sulfonyl)phenyl]urea] | 
